The text below walks through data of US12616706B2, “Compositions and methods of use comprising substances with neural plasticity actions administered at non-psychedelic/psychotomimetic dosages and formulations” (Arbormentis LLC, priority 2019, dated 2026).

SMILES strings stand for the structures. “And” between values parts separate entries of the source, which are not always exact repeats. Identical values can stand only once.

For series [1] the following is noted: cited from earlier work.
For another series, the target named is 5-HT2A receptors (Homo sapiens, UniProt P28223). The conditions noted are these: Rickli et al., 2017; cited from earlier work.
Chain of 5-HT2A receptors (P28223 whole entry): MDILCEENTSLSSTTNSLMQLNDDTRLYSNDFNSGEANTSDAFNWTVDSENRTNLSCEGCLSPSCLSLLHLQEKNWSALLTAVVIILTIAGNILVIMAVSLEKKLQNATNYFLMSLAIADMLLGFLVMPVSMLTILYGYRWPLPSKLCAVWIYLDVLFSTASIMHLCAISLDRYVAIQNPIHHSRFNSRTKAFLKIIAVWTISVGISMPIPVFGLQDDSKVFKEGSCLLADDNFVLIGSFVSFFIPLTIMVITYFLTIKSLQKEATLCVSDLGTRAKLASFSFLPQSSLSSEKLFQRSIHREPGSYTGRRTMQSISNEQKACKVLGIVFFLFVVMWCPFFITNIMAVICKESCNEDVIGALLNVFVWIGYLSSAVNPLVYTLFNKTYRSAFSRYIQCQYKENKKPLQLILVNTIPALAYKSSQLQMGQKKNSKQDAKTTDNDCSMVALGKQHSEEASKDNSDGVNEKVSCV
Another series has as its system BDNF. To be noted: only the lower dose, 25 mg daily, 14-day period; cited from earlier work.
Another series deals with IMR-90. Briefly: Beta Gal assay, UVB induced senescence. The class given is cell-based. From the text: Seeding occurred on Day 1, with pretreatment on Day 2, and UVB-induction and retreatment on Day 3, SABG on Day 8, and microscopy (SABG) on Day 9. […] Results for Example 6 can be seen in FIGS. 19A-27D, and Tables 4, 5, and 6 below.
Series [2] relates to IL-8. In words: IL-8 expression in keratocytes exposed to CM of activated U937 (qPCR). In kind it is cell-based, human. The conditions noted are these: 0.1 and 1 μM psilocin, 4 and 10 h. The procedure: (§1) Anti-inflammatory and anti-fibrotic effects evaluations. Cytokines expression was analyzed in human keratocytes and HCE cells exposed to the inflammatory conditioned medium (CM) of activated U937 cells.
(§2) U937 human monocytes were differentiated to macrophages by treatment with 50 ng/mL phorbol myristate acetate (PMA) for 48 h followed by the exposure to […] lipopolysaccharide (LPS) for 1 hour. Cells were then washed and cultivated with complete RPMI for 24 hours to produce the inflammatory CM. The CM was collected, filtered and stored at −80° C. The differentiation of monocytes to macrophages was examined under an inverted phase-contrast microscope and the mRNA expression of the macrophage differentiation marker CD68 was analysed by quantitative real time PCR (qPCR). Cells were then washed and cultivated with complete DMEM for 24 hours to produce the CM. The CM was collected, filtered and stored at −80° C.
(§3) At 4 and 10 or at 4, 10 and 24 h cells were detached […] extracted to analyze the expression of pro-inflammatory cytokines (IL-1β, TNF-α, IL-8, IL-12, IFNγ). The expression of type collagen I and VEGF was analysed on mRNA extracted from keratocyte cell cultures. The experiments were performed three times.
Background: Real-time PCR tracks product formation cycle by cycle.

A further series concerns keratocytes. Briefly: Cell viability, MTT test, keratocytes. The class given is cell-based, human. The procedure:
(§4) Primary corneal keratocytes were obtained after digestion of human corneas from healthy donors purchased at the Veneto Eye Bank Foundation (Venezia Mestre, Italy). After the corneal epithelium was removed with a cell scraper and the endothelium was enzymatically detached using 0.05% trypsin/0.02% EDTA-solution for 15 minutes at 37° C., the stroma was then cut into 3- to 4-mm pieces and treated overnight at 37° C. with type I collagenase (100 U/ml) and hyaluronidase (2 mg/ml) solutions in Dulbecco's Modified Eagle's Medium (DMEM). Isolated keratocytes were then seeded in monolayer and cultured at 37° C. with 5% CO2 in DMEM containing 10% FBS, 1% penicillin-streptomycin (P/S) and 1% L-glutamine (otherwise known as complete medium). Expanded cells were trypsinized and sub-cultured at a ratio of 1:2. Corneal cells were grown under standard cell culture practices in complete DMEM medium at 37° C., in a 5% CO2 atmosphere. U937 human monocytes were grown in suspension in complete RPMI 1640 medium and passaged twice weekly by dilution using a seeding density of 10^6 cells/ml.
(§5) With this procedure, only viable cells with functioning mitochondria can oxidize MTT to a violet-red reaction product.
Background: Formazan colour is commonly taken as a measure of viable cells.

The subject of a further series is IL-12. In words: IL-12 expression in keratocytes exposed to CM of activated U937 (qPCR). In kind it is cell-based, human. To be noted: 0.1 and 1 μM psilocin, 4 and 10 h. The method, then: as §1, §2, §3
The next series deals with collagen type I. In words: Collagen type I expression in keratocytes exposed to CM of activated U937 (qPCR). The class given is cell-based, human. To be noted: 0.1 and 1 μM psilocin, 4, 10 and 24 h. The method, then: as §1, §2, §3
The next series deals with NMDAR2A. In words: NMDAR2A protein expression in ARPE-19 cells (immunofluorescence). The class given is cell-based. The procedure:
(§6) First, the present inventors assessed the expression of three NMDAR subunits (NMDAR1, NMDAR2A, NMDAR2B) and two 5-HT2 subtypes (5-HT2A, 5-HT2C) by immunofluorescence coupled to confocal microscopy. 7,500 cells/well were plated in a 24-well plate on sterile glass coverslips. The next day, the immunofluorescence analysis was performed. The following primary antibodies were used: anti-NMDAR1A (Abcam, ab68144), NMDAR2A (Bioss, bs-3507R-TR), NMDAR2B (Bioss, bs-0222R-TR), 5-HT2A (Bioss, bs-12049R), 5-HT2C (Bioss, 2959R), and the secondary antibody goat anti-rabbit IgG (GeneTex, GTX213110-04). The images of the immunostained cells were acquired by means of a confocal microscope Zeiss LSM 800, using a 63× magnification and can be seen in FIGS. 9A-9E. ImageJ software was used to quantify the intensity of the fluorescent signal.
(§7) 7,500 cells/well were plated in a 24-well plate on sterile glass coverslips. […] After 6 days an immunofluorescence analysis coupled to confocal microscopy was performed with the primary and secondary antibodies described above.

For another series, the system named is IL-1β. In words: IL-1β expression in keratocytes exposed to CM of activated U937 (qPCR). The class given is cell-based, human. To be noted: 0.1 and 1 μM psilocin, 4 h. The method, then:
as §1, §2, §3

The next series has as its system NMDAR1. In words: NMDAR1 protein expression in ARPE-19 cells (immunofluorescence). The class given is cell-based. The method, then: as §6, §7
Another series has as its system NMDAR2B. Briefly: NMDAR2B protein expression in ARPE-19 cells (immunofluorescence). In kind it is cell-based. The procedure: as §6, §7
The next series deals with TNF-α. In words: TNF-α expression in keratocytes exposed to CM of activated U937 (qPCR). In kind it is cell-based, human. The conditions noted are these: 0.1 and 1 μM psilocin. The method, then:
as §1, §2, §3

Another series has as its system 5-HT2A. Briefly: 5-HT2A receptor expression in ARPE-19 cells (immunofluorescence). The class given is cell-based. To be noted: acute and chronic psilocin exposure; decreasing tendency. The method, then: as §6, §7
Series [3] concerns Human corneal epithelial (HCE) cells. In words: Cell viability, MTT test, HCE cells. In kind it is cell-based.
Description: (§8) Cell cultures. Human corneal epithelial (HCE) cells were obtained from the American Type Culture Collection. U937 human monocytes cell line was purchased from Thermo Scientific.
as §5

A further series has as its system VEGF. In words: VEGF expression in keratocytes exposed to CM of activated U937 (qPCR). In kind it is cell-based, human. To be noted: 0.1 and 1 μM psilocin, 4, 10 and 24 h. The method, then: as §1, §2, §3
A further series concerns corneal cells. Briefly: Psilocin cytotoxicity in corneal cells. The conditions noted are these: 0.001 to 10 μM, assessed 3 days after treatment. The class given is cell-based, human. The method, then: as §8, §4, §5
The test system of series [4] is IL-8. Briefly: IL-8 expression in HCE cells exposed to CM of activated U937 (qPCR). The conditions noted are these: 0.1 and 1 μM psilocin, 10 h. The class given is cell-based, human. The procedure:
as §1, §2, §3

For series [5] the following is noted: after ingestion of psilocybin mushrooms; cited from earlier work.
For another series, the system named is 5-HT2C. In words: 5-HT2C receptor expression in ARPE-19 cells (immunofluorescence). The class given is cell-based. To be noted: chronic treatment with psilocin. The procedure:
as §6, §7

The mark [6] stands for this setting: 3 and 6 days after treatment, 0.01, 0.1 and 1 μM.
The mark [7] stands for this setting: 0.05 μM, alternating medium with/without psilocin every 24 hours (96 hours).

For `CCC(=O)C(C[C@H](C)N(C)C)(c1ccccc1)c1ccccc1` [D methadone, dextromethadone], in series [1] (only the lowest tested dose of 5 mg), the Nootropic signal entry was “elicited a nootropic signal”. Also, in series [1] (single ascending dose 5-200 mg, nausea and vomiting), the MTD was 150 mg. Also, at 5-HT2A receptors, the “Affinity of 5-HT-2A receptors” value is listed as “nanomolar range”. Further, the “Plasma BDNF” value with BDNF is “statistically significant increase in plasma BDNF”. Besides, in the series with IMR-90 (D methadone 10 nM), the “Avg % Beta Gal+ cells” value amounted to 79.01% and the “Total % Beta Gal+ cells” value is 81.29%. The “% Beta Gal+ cells, single well/duplicate” value with IMR-90 (D methadone 10 nM, UVB without treatment Avg 85.63514) is 71.875% and 85.71% and 77.19% and 81.25%. In the series on IMR-90 (D methadone 500 nM), the “% Beta Gal+ cells, single well/duplicate” value was 82.86% and 82.35% and 76.47% and 91.67%; the “Avg % Beta Gal+ cells” value amounted to 83.34%; the “Total % Beta Gal+ cells” value is on record as 83.94%.

Consider `CN(C)CCc1c[nH]c2cccc(O)c12` [psilocin], for which the “IL-8 mRNA expression” value in the series with IL-8 [2] is “significant decrease”. Also, the Corneal cell viability result (with keratocytes (setting [6]); in [3] (setting [6])) was “significant increase in corneal cell viability” in each case. The “Cell viability (MTT)” value in the series on keratocytes (keratocytes, 0.1 to 1 μM psilocin, up to 6 days) is “significant increased viability”; in series [3] (HCE cells, 0.1 to 1 μM psilocin, up to 6 days), “significant increased viability”. Moreover, the “IL-12 mRNA expression” value with IL-12 is given as “significant decrease”. Moreover, in the series on collagen type I, the “Collagen type I gene expression” value is given as “did not change significantly”. Moreover, the “NMDAR2A subunit protein expression” value with NMDAR2A (psilocin 0.05 μM for 6-days) is “dramatic increase”; in the series on NMDAR2A (psilocin 10 μM for 24 hours), “slight, not significant increase”. In addition, in the series with IL-1β, the “IL-1β mRNA expression” value is listed as “significant decrease”. Moreover, the NMDAR1 expression entry in the series with NMDAR1 (setting [7]) is “increase of NMDAR1 expression”; in the series with NMDAR1 (alternate incubation or psilocin-containing medium replaced every day (FIGS. 11G-11I context)), “increased significantly”. The “NMDAR1 subunit protein expression” value in the series with NMDAR1 (psilocin 0.05 μM for 6-days) is on record as “dramatic increase”; with NMDAR1 (psilocin 10 μM for 24 hours) it was “slight, not significant increase”. The NMDAR2B expression entry in the series on NMDAR2B (setting [7]) is “decrease of NMDAR2B expression”. For the same compound, the “NMDAR2B subunit protein expression” value in the series with NMDAR2B (psilocin 0.05 μM for 6-days) and in the series on NMDAR2B (psilocin 10 μM for 24 hours) was “did not change” each time. For the same compound, the “TNF-α mRNA expression” value with TNF-α is “very low and comparable to that of cells treated only with CM”. Besides, the “Expression of 5-HT2A receptor” value with 5-HT2A is on record as “virtually no effect”. The “VEGF I gene expression” value in the series on VEGF is “did not change significantly”. Besides, in the series with corneal cells, the “Cytotoxic effect in vitro” value is “does not have a cytotoxic effect”. Besides, in the series with IL-8 [4], the IL-8 gene expression entry is on record as “significant down-regulation”. In addition, the Psilocin in bile in [5] was 3102 ng/mL. For the same compound, in series [5], the “Psilocin in cardiac blood” value is on record as 67 ng/mL. For the same compound, the “Psilocin in peripheral blood” value in series [5] is 60 ng/mL. Moreover, in [5], the Psilocin in urine is given as 2230 ng/mL. Also, in [5], the “Psilocin in vitreous humor” value is recorded as 57 ng/mL. Also, the “% Beta Gal+ cells, single well/duplicate” value in the series with IMR-90 (Psilocin 5 nM) was 86.67% and 75% and 85.71% and 81.82%. Further, the “Avg % Beta Gal+ cells” value with IMR-90 (Psilocin 5 nM) stood at 82.3%. For the same compound, the “Total % Beta Gal+ cells” value in the series with IMR-90 (Psilocin 5 nM) was 64.45%. Also, the Antisenescence effects entry with IMR-90 (higher doses of psilocin (up 24 microM, experiment not shown)) is “no antisenescence effects”; in the series on IMR-90 (psilocin lower doses (5 nM)) it was “no antisenescence effects”. Also, the “Expression of 5-HT2C” value in the series with 5-HT2C is listed as “increased after chronic treatment”.
